Each structure is given as a SMILES string. Bounds are passed on as bounds.

The source of these data is patent US5130327A, “Indole derivatives” (Consejo Superior de Investigaciones Cientificas, priority 1989, dated 1992).

The target in assay [1] is T1, Bovine Brain MAO A (Bos taurus, UniProt P21398).
T1 construct: in vitro activity of MAO from bovine brain mitochondria; from tissue; host or cells: bovine brain mitochondria
T1 sequence (P21398 1-527): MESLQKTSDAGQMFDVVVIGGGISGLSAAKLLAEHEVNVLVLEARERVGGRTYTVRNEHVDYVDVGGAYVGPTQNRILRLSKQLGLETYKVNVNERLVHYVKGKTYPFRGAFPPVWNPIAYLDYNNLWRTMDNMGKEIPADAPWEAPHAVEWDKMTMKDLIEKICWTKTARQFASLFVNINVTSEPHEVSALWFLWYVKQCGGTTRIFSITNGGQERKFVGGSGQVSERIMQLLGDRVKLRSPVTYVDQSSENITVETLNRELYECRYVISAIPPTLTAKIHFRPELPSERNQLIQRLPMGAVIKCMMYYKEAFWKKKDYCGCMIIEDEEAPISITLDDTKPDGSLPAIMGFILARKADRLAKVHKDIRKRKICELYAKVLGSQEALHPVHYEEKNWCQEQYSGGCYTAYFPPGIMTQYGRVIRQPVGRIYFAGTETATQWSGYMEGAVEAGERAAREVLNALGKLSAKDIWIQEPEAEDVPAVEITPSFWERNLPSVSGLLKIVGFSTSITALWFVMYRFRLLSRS
The experiment in a line: In vitro inhibition of MAO from bovine brain mitochondria, tyramine as substrate (form A). In kind it is biochemical. The following applies: pI50 = -log [I50], molar. The text has this:
(§1) The following table illustrates the structure of particular compounds of the invention (1). It also gives specific pI50 values where pI50 =-log [I50 ] where [I50 ] is the molar concentration of test compound which inhibits 50% of the in vitro activity of MAO from bovine brain mitochondria using tyramine as substrate.

Assay [2] addresses T2, Bovine Brain MAO B (Bos taurus, UniProt P56560).
T2 construct: in vitro activity of MAO from bovine brain mitochondria; from tissue; host or cells: bovine brain mitochondria
T2 sequence (P56560 1-520): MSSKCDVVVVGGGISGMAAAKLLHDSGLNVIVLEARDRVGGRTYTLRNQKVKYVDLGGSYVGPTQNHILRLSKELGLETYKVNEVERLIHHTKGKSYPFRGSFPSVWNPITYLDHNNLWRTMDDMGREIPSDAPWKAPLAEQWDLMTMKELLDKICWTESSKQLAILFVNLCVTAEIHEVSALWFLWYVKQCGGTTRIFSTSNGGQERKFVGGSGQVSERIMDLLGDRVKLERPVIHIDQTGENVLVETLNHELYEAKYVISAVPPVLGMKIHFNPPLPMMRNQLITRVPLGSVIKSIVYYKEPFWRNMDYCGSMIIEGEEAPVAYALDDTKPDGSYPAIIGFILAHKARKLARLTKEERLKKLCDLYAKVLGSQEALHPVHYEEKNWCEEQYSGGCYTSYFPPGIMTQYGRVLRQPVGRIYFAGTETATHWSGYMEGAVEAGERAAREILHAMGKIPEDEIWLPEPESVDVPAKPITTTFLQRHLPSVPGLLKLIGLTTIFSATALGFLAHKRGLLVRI
Put plainly: In vitro inhibition of MAO from bovine brain mitochondria, tyramine as substrate (form B). Type of assay: biochemical. Details: key to Bovine Brain MAO, mark printed in place of a B value (nonselective): ns = nonselective. The following applies: for IC50: pI50 = -log [I50], molar, bovine brain mitochondria, tyramine as substrate; for Bovine Brain MAO, mark printed in place of a B value (nonselective): one pI50 given, no separate A and B values.
From the text: as §1

As for `C#CCNCc1cc2cc(OC)ccc2[nH]1` [(a), N-propargyl-2-(5-methoxy-indolyl)methylamine], the IC50 (commonly the midpoint of a concentration-inhibition curve) was 219 nM in assay [1] and 110000 nM in assay [2].
For `C#CCN(C)Cc1cc2cc(OC)ccc2[nH]1` [(c), N-methyl-N-propargyl-2-(5-methoxy-indolyl)methylamine], the IC50 was 7.08 nM in assay [1] and 447 nM in assay [2].
The corresponding values for `CC#CCNCc1cc2cc(OC)ccc2[nH]1` [(d), N-(2-butynyl)-2-(5-methoxy-indolyl)methylamine] are 631 nM and over 331000 nM.
As for `CC#CCN(CC#CC)Cc1cc2cc(OC)ccc2[nH]1` [(e), N,N-bis(2-butynyl)-2-(5-methoxy-indolyl)methylamine], the IC50 is at least 20000 nM in assay [1] and over 20000 nM in assay [2].
On to `CC#CCN(C)Cc1cc2cc(OC)ccc2[nH]1` [(f), N-(2-butynyl)-N-methyl-2-(5-methoxy-indolyl)methylamine], for which the IC50 in assay [1] was 8.91 nM; in assay [2] it was 12900 nM.
On to `C=C=CCNCc1cc2cc(OC)ccc2[nH]1` [(g), N-(2,3-butadienyl)-2-(5-methoxy-indolyl)methylamine], for which the half-maximal inhibitory concentration (IC50) in assay [1] is 44.7 nM; in assay [2], 2510 nM.
For `C=C=CCN(CC=C=C)Cc1cc2cc(OC)ccc2[nH]1` [(h), N,N-bis(2,3-butadienyl)-2-(5-methoxy-indolyl)methylamine], it took 447 nM to reach half-maximal inhibition in assay [1] (IC50). In addition, the “Bovine Brain MAO, mark printed in place of a B value (nonselective)” value (“Bovine Brain MAO … (nonselective)” for short) in assay [2] is “ns”.
As for `C=C=CCN(C)Cc1cc2cc(OC)ccc2[nH]1` [(i), N-(2,3-butadienyl)-N-methyl-2-(5-methoxy-indolyl)methylamine], the half-inhibitory concentration (IC50) in assay [1] is 17.8 nM; in assay [2], 5010 nM.
In the case of `C#CCNCc1cc2cc(OC)ccc2n1C` [(j), N-propargyl-2-(1-methyl-5-methoxy-indolyl)methylamine], the concentration for half-maximal inhibition (IC50) in assay [1] was 20.9 nM; in assay [2], 44700 nM.
For the compound `C#CCN(CC#C)Cc1cc2cc(OC)ccc2n1C` [(k), N,N-bis(propargyl)-2-(1-methyl-5-methoxy-indolyl)methylamine], in assay [1], the midpoint of inhibition, the IC50, lay at 2820 nM. The “Bovine Brain MAO … (nonselective)” value in assay [2] is reported as “ns”.
Regarding `CC#CCNCc1cc2cc(OC)ccc2n1C` [(m), N-(2-butynyl)-2-(1-methyl-5-methoxy-indolyl)methylamine], the IC50 is 129 nM in assay [1] and 79400 nM in assay [2].
Consider `CC#CCN(CC#CC)Cc1cc2cc(OC)ccc2n1C` [(n), N,N-bis(2-butynyl)-2-(1-methyl-5-methoxy-indolyl)methylamine], for which the IC50 in assay [1] is 3980 nM; in assay [2] it was over 501000 nM.
`CC#CCN(C)Cc1cc2cc(OC)ccc2n1C` [(o), N-(2-butynyl)-N-methyl-2-(1-methyl-5-methoxy-indolyl)methylamine] gave a half-inhibitory concentration (IC50) in assay [1] of 35.5 nM. The “Bovine Brain MAO … (nonselective)” value in assay [2] is recorded as “ns”.
With `C=C=CCNCc1cc2cc(OC)ccc2n1C` [(p), N-(2,3-butadienyl)-2-(1-methyl-5-methoxy-indolyl)methylamine], the half-maximal inhibitory concentration (IC50) in assay [1] was 21.9 nM; in assay [2], 398 nM.
In assay [1], `C=C=CCN(CC=C=C)Cc1cc2cc(OC)ccc2n1C` [(q), N,N-bis(2,3-butadienyl)-2-(1-methyl-5-methoxy-indolyl)methylamine] showed an IC50 of 302 nM. Also, in assay [2], the “Bovine Brain MAO … (nonselective)” value is on record as “ns”.
`C=C=CCN(C)Cc1cc2cc(OC)ccc2n1C` [(r), N-(2,3-butadienyl)-N-methyl-2-(1-methyl-5-methoxy-indolyl)-methylamine]: the IC50 in assay [1] is 5.37 nM; in assay [2], 501 nM.
`COc1ccc2c(c1)cc(CN)n2C` [(u), 2-(1-methyl-5-methoxy-indolyl)methylamine] had an IC50 in assay [1] of 18200 nM. Moreover, the “Bovine Brain MAO … (nonselective)” value in assay [2] is given as “ns”.
Consider `CNCc1cc2cc(OC)ccc2n1C` [(v), N-methyl-2-(1-methyl-5-methoxy-indolyl)methylamine], for which the half-inhibitory concentration (IC50) in assay [1] was 129000 nM. For the same compound, the “Bovine Brain MAO … (nonselective)” value in assay [2] is listed as “ns”.
